{
  "source": "patent US20260287586A1",
  "about": "“METHODS OF TREATING TKI-RESISTANT AND SDH-DEFICIENT GIST” (priority 2023, published 2026)",
  "key": {"SDH-deficient GIST": {"system": "SDH-deficient GIST", "assay": "Phase 1 trial HQP1351-SJ-0003: antitumor efficacy per RECIST v1.1 in SDH-deficient GIST subgroup", "format": "in vivo, human", "excerpt": "NCT03594422). The dose escalation aspect of the study enrolled patients with advanced and/or metastatic GIST or other solid tumors that were refractory or had relapsed after treatment with at least one TKI. […] All AEs were graded according to the US National Cancer Institute (NCI) Common Terminology Criteria for Adverse Events (CTCAE; version 4.03). […] Urinalysis, coagulation, cardiac troponin I/T, lipase, amylase, and electrocardiograms were done at baseline; during cycles 1 and 2 (on days 1 and 15); cycle 3, 5, 7, and 9; every 3 cycles after cycle 9 (on day 1); and 14 days after the last dose of treatment. All patients underwent tumor imaging for response assessment via computed tomography or magnetic resonance imaging at screening and every two cycles (8 weeks) until progression or discontinuation. Target and nontarget lesions were assessed per Response Evaluation Criteria in Solid Tumors version 1.1 (RECIST v1.1). CBR was defined as the proportion of patients with a confirmed CR or PR of any duration or SD for at least 16 weeks from the start of treatment (CBR=CR+PR+SD≥16 weeks). ORR was defined as the proportion of patients with a confirmed CR or PR of any duration (ORR=CR+PR). PFS was defined as the time from the start of treatment to the date of first documented disease progression or death due to any cause, whichever occurred first. OS was defined as the time from start of treatment until the date of death. We evaluated antitumor activity in patients from the SDH-deficient GIST population who had at least one postbaseline disease assessment. We used Kaplan-Meier methods to estimate PFS, and OS; corresponding 95% CIs are provided. Efficacy results for patients with SDH-deficient GIST are reported separately. All statistical analyses were performed with SAS (version 9.3 or higher; SAS Institute, Cary, NC)."}, "[1]": {"system": "BCL-XL and MCL-1 protein expression", "assay": "Mechanism study: BCL-XL and MCL-1 protein expression", "format": "cell-based", "conditions": "possibly via inhibition of KIT signal pathway and STAT3", "excerpt": "Therefore, selective inhibition of BCL-2, aided by TKI-mediated MCL-1 and BCL-XL inhibition, markedly augmented cleavage of caspase-3 and poly(ADP-ribose) polymerase 1 (PARP-1), thus triggering apoptosis and subsequently enhancing antitumor effects."}, "[2]": {"system": "OS-RC-2 (SDHB-deficient) and 785-O (SDHB-competent) renal carcinoma cells", "assay": "Cell colony formation assay", "format": "cell-based", "conditions": "7 days (SDHB-competent line), 10 days (OS-RC-2); FIG. 2B right", "procedure": "Cells were extracted from SDH-deficient patient tumor tissues, seeded into 96-well plates, and incubated for 24 hours in GIST culture medium. […] Right panel, Colony formation assay in renal carcinoma cells 7860 (SDHB-wild-type) and OS-RC-2 (SDHB-deficient). Cells were seeded into 6-well plates and incubated overnight in complete culture medium.\nFor the colony formation assay, 1,000 cells were plated in 6-well plates per well, incubated for 7 to 14 days, then stained with 0.1% crystal violet and colony numbers counted."}},
  "data": [
    {"smiles": "Cc1ccc(C(=O)Nc2ccc(CN3CCN(C)CC3)c(C(F)(F)F)c2)cc1C#Cc1cnc2[nH]ncc2c1", "note": "[Olverembatinib, olverembatinib]", "values": [
      {"measurement": "overall survival rate", "setting": "SDH-deficient GIST; SDH-deficient GIST cohort at data cut-off", "value": 100, "unit": "%"},
      {"measurement": "complete response (CR)", "setting": "SDH-deficient GIST; SDH-deficient GIST subgroup, 26 evaluable patients", "value": "No patient experienced a complete response"},
      {"measurement": "confirmed overall responses per RECIST v1.1", "setting": "SDH-deficient GIST; SDH-deficient GIST subgroup, median follow-up 17.0 months", "value": "6 of 26 evaluable patients"},
      {"measurement": "median progression-free survival (PFS)", "setting": "SDH-deficient GIST; SDH-deficient GIST, Kaplan-Meier estimate, RECIST v1.1", "value": 25.7, "unit": "months"},
      {"measurement": "effect on BCL-XL and MCL-1 protein expression", "setting": "[1]", "value": "downregulate BCL-XL and MCL-1 protein expression"},
      {"measurement": "inhibition of clone formation, OS-RC-2 versus 785-O", "setting": "[2]", "value": "more significantly inhibited"}
    ]}
  ]
}
